# Reference: patent US20150174123A1, “OXABICYCLOHEPTANES AND OXABICYCLOHEPTENES FOR THE TREATMENT OF REPERFUSION INJURY” (priority 2012, published 2015)
# Values joined by “and” are separate entries in the source; they are usually repeats but may differ in a detail not shown here. Equal values may be shown once. “Also recorded” adds a separate entry of the source. Read-outs that look alike come from different tables or passages of the source.
# Legend:
# rabbit cells = rabbit cells in vitro; cited from earlier work
# pig cells = pig cells in vitro; cited from earlier work
# [1] = system: cardiac tissue (myocardium); details: given before or after onset of oxygen deprivation, cited from earlier work
# PP2A [2] = molecular target: PP2A (Homo sapiens, UniProt P67775); details: cited from earlier work; for PP2A inhibition: statement in words
# Akt [3] = assay: Example 3: phosphorylation and activation of Akt in mammalian cells; format: cell-based; details: mammalian cells incl. cardiac, brain, endothelial cells; no data given
# [4] = given orally to mice; cited from earlier work
# heart = assay: Example 5: tissue damage from reperfusion injury in the heart after myocardial infarction; format: in vivo; details: following myocardial infarction; no data given
# Description: (§1) LB100, LB102 or LB107 are tested in an animal model of cardiac ischemia-reperfusion injury.
# mammalian tissue = assay: Example 4: reperfusion injury in mammalian tissue that has suffered an ischemia; format: in vivo; details: mammalian tissue after ischemia; no data given
# Description: as §1
# The mammalian tissue includes, but is not limited to, cardiac tissue, brain tissue and endothelial tissue.
# [5] = Example 5: sepsis, vascular leakage and endothelial dysfunction from reperfusion injury; format: in vivo; details: subject suffering from sepsis; no data given
# [6] = Toxicokinetic studies in rats; format: in vivo; details: doses known to inhibit PP2A in tissue of rodents
# PP2A [7] = details: in vitro in human cancer cells; cited from earlier work
# [8] = system: distal end of a flap graft; assay: Survival of tissue at the distal end of a skin flap graft (necrosis by planimetry and photographs); format: in vivo, in-bred rats
# Description: An ALZET pump (model 1007D, reservoir volume 100 ul) was implanted subcutaneously under anesthesia subcutaneously four days before creating a skin flap again under anesthesia. The pump in control animals contained sodium chloride and the pump in treated animals contained 0.55 mg of LB-100. The pump delivers 0.5 ul/hour+/−10% so each animal received about 12 ul/day for 8 days, 4 days prior to raising the graft and for the first 4 days after creation of the graft. There were 10 animals in each group.
# The animals were sacrificed on day 7 following creation of the flap, the amount of necrosis at the end of the flap was measured by planimetry. The area of necrosis at the end of the flap was divided by total surface area of the entire flap and expressed as a percentage.
# The visual appearance of the flaps was also inspected. FIGS. 1a-j show control rats 1-10 on day 7 and FIGS. 2a-j show treatment rats 1-10 on day 7. The treatment rats had received LB-100.
# cancer cells = details: mouse model systems; cited from earlier work
# PP2A [9] = details: xenografts of human tumor cells in mice, given parenterally; cited from earlier work
# Akt [10] = details: Lu et al. 2009; US patent; cited from earlier work
# [11] = Toxicokinetic studies in dogs; format: in vivo; details: doses known to inhibit PP2A in tissue of rodents
# [12] = system: mouse skeletal muscle endothelial cells; details: cited from earlier work
# [13] = young and aged rats; cited from earlier work
# pig myocardium = details: cited from earlier work
# endothelial barrier = details: septic insult; concentration that inhibits PP2A activity; cited from earlier work
# PP1 = details: Lu et al. 2009(a); cited from earlier work
# Chain of PP2A (Homo sapiens, UniProt P67775) (P67775 whole entry): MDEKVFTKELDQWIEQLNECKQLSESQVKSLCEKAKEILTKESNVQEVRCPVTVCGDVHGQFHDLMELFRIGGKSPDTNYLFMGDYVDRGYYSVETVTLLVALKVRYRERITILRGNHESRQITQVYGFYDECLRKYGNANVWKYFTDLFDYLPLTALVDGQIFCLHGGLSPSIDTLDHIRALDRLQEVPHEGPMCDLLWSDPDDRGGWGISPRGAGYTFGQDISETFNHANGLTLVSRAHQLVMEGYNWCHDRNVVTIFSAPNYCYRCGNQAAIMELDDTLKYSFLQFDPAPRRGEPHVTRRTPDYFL
structure (smiles),measurement,setting,value
COC[C@@H]([C@H](O)[C@H](O)C(=O)NCC[C@H](C)c1nc(/C=C/C[C@@H]2O[C@]3(C[C@@H](O)[C@@H]2C)O[C@H]([C@H](C[C@H](O)[C@H](C)[C@H](O)[C@H](C)/C=C(C)/C(C)=C/C=C/C(C)=C\C#N)OC)[C@H](OP(=O)(O)O)C3(C)C)co1)N(C)C [calyculin A],Protection from injury,rabbit cells,afforded protection from injury
same,Protection from injury,pig cells,afforded protection from injury
C[C@@](O)(/C=C/[C@H]1CC=CC(=O)O1)[C@@H](C[C@@H](O)\C=C/C=C\C=C\CO)OP(=O)(O)O [fostriecin],Size of infarction of cardiac tissue / injury,[1],minimizes the size of infarction
same,Size of infarction of cardiac tissue / injury,[1]; listed as FOS,reduces injury
same,Protection from injury,rabbit cells,afforded protection from injury
same,Protection from injury,pig cells,afforded protection from injury
"COC(=O)C1C(C(=O)N2CCN(C)CC2)[C@@H]2CC[C@H]1O2 (stereo in doubt) [LB-107, 3-(4-Methylpiperazine-1-carbonyl)-7-oxa-bicyclo[2,2,1]heptane-2-carboxylic acid methyl ester]",PP2A inhibition,PP2A [2],effective inhibitors of PP2A
same,Activation of Akt,Akt [3],increase activation of Akt
same,Dephosphorylation and inactivation of Akt by PP2A,Akt [3],reduce dephosphorylation and inactivation of Akt
same,Phosphorylation of Akt,Akt [3],increase phosphorylation of Akt
same,Oral activity,[4],active when given orally
same,Tissue damage associated with reperfusion injury in the heart,heart,reduce tissue damage; also recorded: prevent tissue damage
same,Reperfusion injury,mammalian tissue,reduce reperfusion injury
same,Endothelial dysfunction associated with reperfusion injury,[5],reduce endothelial dysfunction
same,Vascular leakage associated with reperfusion injury,[5],reduce vascular leakage
CN1CCN(C(=O)C2C(C(=O)O)[C@H]3CC[C@@H]2O3)CC1 (some centres unmarked) [LB-100],Toxicity,[6],acceptable and reversible toxicity
same,PP2A inhibition,PP2A [2],effective inhibitors of PP2A
same,PP2A inhibition,PP2A [7],inhibitors of PP2A
same,Average area of necrosis (%),"[8]; average of 10 treatment rats, day 7, control average 41.0627243",31.97%
same,Visual appearance of flaps (photographs),"[8]; day 7, distal ends of the flap, vs control rats",less extensive necrosis
same,Necrosis (area by planimetry),"[8]; individual treatment rats 1-10, day 7 after flap creation, pump with 0.55 mg LB-100",64147 and 66886 and 77327 and 91515 and 112275 and 55473 and 63777 and 66144 and 37181 and 77089
same,Area of necrosis at the end of the flap divided by total surface area of the flap (%),"[8]; individual treatment rats 1-10, day 7 after flap creation, pump with 0.55 mg LB-100, about 12 ul/day for 8 days",31.96% and 28.88% and 30.7% and 39.47% and 40.43% and 30.66% and 33.77% and 25.95% and 24.03% and 33.9%
same,Mean decrease in extent of necrosis in treated animals,"[8]; treated vs control rats, planimetry, day 7",22%
same,Activation of Akt,Akt [3],increase activation of Akt
same,Dephosphorylation and inactivation of Akt by PP2A,Akt [3],reduce dephosphorylation and inactivation of Akt
same,Phosphorylation of Akt,Akt [3],increase phosphorylation of Akt
same,Growth of cancer cells,cancer cells,inhibit the growth of cancer cells
same,PP2A inhibition,PP2A [9],inhibitors of PP2A
same,Tissue damage associated with reperfusion injury in the heart,heart,reduce tissue damage; also recorded: prevent tissue damage
same,Phosphorylation of Akt,Akt [10],increased phosphorylation of Akt
same,Reperfusion injury,mammalian tissue,reduce reperfusion injury
same,Endothelial dysfunction associated with reperfusion injury,[5],reduce endothelial dysfunction
same,Vascular leakage associated with reperfusion injury,[5],reduce vascular leakage
same,Toxicity,[11],acceptable and reversible toxicity
C=C1[C@@H](O)[C@@H]2O[C@]3(CC[C@H](/C=C/[C@@H](C)[C@@H]4CC(C)=C[C@@]5(O[C@H](C[C@@](C)(O)C(=O)O)CC[C@H]5O)O4)O3)CC[C@H]2O[C@@H]1[C@@H](O)C[C@H](C)[C@H]1O[C@@]2(CCCCO2)CC[C@H]1C [okadaic acid],Endothelial barrier function,[12],preserved endothelial barrier function
same,Cellular death following induced MI,[13],reduced cellular death
same,"Activity of phosphatases, especially PP2A, in heart tissue",pig myocardium; heart tissue infused with the inhibitor,decreased
same,Protection of myocardium against ischemia,"pig myocardium; pig, in vivo model",protected pig myocardium against ischemia
same,Endothelial barrier disruption,endothelial barrier,decreases endothelial barrier disruption
CC(C)(C)OC(=O)N1CCN(C(=O)C2C(C(=O)O)[C@H]3CC[C@@H]2O3)CC1 (some centres unmarked) [LB-102],IC50,"PP2A [2]; read-out: IC50 PP2A, Lu et al. 2009(a)",~0.4 µM
same,PP2A inhibition,PP2A [2],effective inhibitors of PP2A
same,PP2A inhibition,PP2A [7],inhibitors of PP2A
same,Activation of Akt,Akt [3],increase activation of Akt
same,Dephosphorylation and inactivation of Akt by PP2A,Akt [3],reduce dephosphorylation and inactivation of Akt
same,Phosphorylation of Akt,Akt [3],increase phosphorylation of Akt
same,IC50,PP1,~8 µM
same,Growth of cancer cells,cancer cells,inhibit the growth of cancer cells
same,PP2A inhibition,PP2A [9],inhibitors of PP2A
same,Tissue damage associated with reperfusion injury in the heart,heart,reduce tissue damage; also recorded: prevent tissue damage
same,Phosphorylation of Akt,Akt [10],increased phosphorylation of Akt
same,Reperfusion injury,mammalian tissue,reduce reperfusion injury
same,Endothelial dysfunction associated with reperfusion injury,[5],reduce endothelial dysfunction
same,Vascular leakage associated with reperfusion injury,[5],reduce vascular leakage
